Results on two compounds are retold here after patent US11730725B2 (Tesaro, Inc., priority 2017, dated 2023).

For orientation: inhibition means the share of the control response that was lost under treatment.

Where two headings read alike, the source gives them in different places.

The conditions of series [1]: drug substance, crystalline solid.
The test system of series [2] is platinum-sensitive recurrent epithelial ovarian, fallopian tube, or primary peritoneal cancer. To be noted: niraparib vs placebo. The text has this:
All patients had received at least two prior platinum-containing regimens and were in response (complete or partial) to their most recent platinum-based regimen. Eligible patients were assigned to one of two cohorts based on the results of a germline BRCA mutation test. […] Randomization occurred within 8 weeks of the last dose of the most recent platinum-containing regimen. […] Clinic visits occurred each cycle (4 weeks±3 days). […] Prior to unblinding of the study, tumors of patients randomized to the non-gBRCAmut cohort were tested for the presence of homologous recombination deficiency (HRD) using the Myriad myChoice® HRD test, which evaluates three independent biomarkers of tumor genome instability: loss of heterozygosity, telomeric allelic imbalance, and large-scale state transitions. Tumors with homologous recombination deficiencies and those with somatic BRCA mutations were defined as HRD positive (HRDpos). The primary efficacy analysis for PFS was prospectively defined and assessed for the gBRCAmut cohort. The primary efficacy analysis for PFS was prospectively defined and assessed for the non-gBRCAmut cohort with a hierarchical testing schema. In the first step, PFS was assessed in the group of patients with HRDpos tumors and if significant, PFS was assessed in the overall non-gBRCAmut cohort. Secondary efficacy endpoints included chemotherapy-free interval (CFI), time to first subsequent therapy (TFST), PFS after the first subsequent therapy (PFS2), time to second subsequent therapy (TSST) and OS (overall survival).

Series [3] has as its system tumor models.
Series [4] deals with tumor models. The experiment in a line: animal or person. To be noted: read-out: PARP inhibition.

Consider `Cc1ccc(S(=O)(=O)O)cc1.NC(=O)c1cccc2cn(-c3ccc([C@@H]4CCCNC4)cc3)nc12` [Niraparib tosylate monohydrate, 2-{4-[(3S)-piperidin-3-yl]phenyl}-2H-indazole 7-carboxamide 4-methylbenzenesulfonate hydrate (1:1:1)], for which the hygroscopicity entry in series [1] is recorded as “non-hygroscopic”.
On to `NC(=O)c1cccc2cn(-c3ccc([C@@H]4CCCNC4)cc3)nc12` [Niraparib], for which the “CFI HR” value in series [2] (gBRCAmut cohort) is 0.26; in series [2] (non-gBRCAmut cohort) it was 0.50. In addition, the “TFST HR” value is given as 0.31 in series [2] (gBRCAmut cohort) and 0.55 in series [2] (non-gBRCAmut cohort). The tumor regression entry is on record as “tumor regression” with tumor models [3] (50 mg/kg, daily dosing); “did not result in tumor regression” in the series on tumor models [3] (dose of 75 mg/kg, same model); “tumor regression was achieved” with tumor models [3] (dosing switched from 75 mg/kg to 50 mg/kg). Moreover, in the series with tumor models [4], the inhibition at 50 mg/kg is above 90%.
